From the supplement of paper PMC12137928
Structures can show the parent of a compound that is named as a salt.

System: HCT116
Settings: 72 h
Procedure, shortened: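 After seeding at 250 cells per well in 1536-well plates, HCT116 cells were given 5 h to attach. CellTiter-Glo luminescence, scaled to 0% for vehicle and -100% for positive control, was pattern-corrected. Fitting with a four-parameter Hill model produced IC50 and maximal efficacy.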

SMILES | IC50 cell viability (ICRF193 0 nM) [µM] | IC50 cell viability (ICRF193 200 nM) [µM]
CCC(=O)NC[C@@H]1C[C@H]1c1cccc2c1CCO2 [Tasimelteon] | > 45.8 | > 45.8
NCCS(=O)(=O)O [Taurine] | > 45.8 | > 45.8
CCCCOC(=O)C(=O)Nc1cccc(-c2nnn[nH]2)c1 [Tazanolast] | > 45.8 | > 45.8
CCOC(=O)c1ccc(C#Cc2ccc3c(c2)C(C)(C)CCS3)nc1 [Tazarotene] | > 45.8 | > 45.8
C[C@]1(Cn2ccnn2)[C@H](C(=O)O)N2C(=O)C[C@H]2S1(=O)=O [Tazobactam sodium] | > 45.8 | > 45.8
C[C@@H](O)[C@H]1C(=O)N2C(C(=O)OCOC(=O)C(C)(C)C)=C(SC3CN(C4=NCCS4)C3)[C@H](C)[C@H]12 [Tebipenem pivoxil] | > 45.8 | > 45.8
O=c1[nH]c(=O)n(C2CCCO2)cc1F (stereo not given) [Tegafur] | > 45.8 | > 45.8
Cc1cn([C@@H]2C[C@@H](O)[C@H](CO)O2)c(=O)[nH]c1=O [Telbivudine] | > 45.8 | > 45.8
CCCc1nc2c(C)cc(-c3nc4ccccc4n3C)cc2n1Cc1ccc(-c2ccccc2C(=O)O)cc1 [Telmisartan] | > 45.8 | > 45.8
CCOC(=O)[C@H](CCc1ccccc1)N[C@H]1CS[C@H](c2cccs2)CN(CC(=O)O)C1=O [Temocapril hydrochloride] | > 45.8 | > 45.8
Cn1nnc2c(C(N)=O)ncn2c1=O [Temozolomide] | > 45.8 | > 45.8
COc1ccc2[nH]c([S+]([O-])Cc3ncc(C)c(OC)c3C)nc2n1 (stereo not given) [Tenatoprazole] | > 45.8 | > 45.8
Cc1cc(N2CCN([C@@H]3CN[C@H](C(=O)N4CCSC4)C3)CC2)n(-c2ccccc2)n1 [Teneligliptin] | > 45.8 | > 45.8
CC(C)OC(=O)OCOP(=O)(CO[C@H](C)Cn1cnc2c(N)ncnc21)OCOC(=O)OC(C)C [Tenofovir disoproxil fumarate] | > 45.8 | > 45.8
CN1C(C(=O)Nc2ccccn2)=C(O)c2sccc2S1(=O)=O [Tenoxicam] | > 45.8 | > 45.8
CC(=O)CC/C=C(\C)CC/C=C(\C)CC/C=C(\C)CCC=C(C)C [Teprenone] | > 45.8 | > 45.8
COc1cc2nc(N3CCN(C(=O)C4CCCO4)CC3)nc(N)c2cc1OC (stereo not given) [Terazosin hydrochloride] | > 45.8 | > 45.8
CN(C/C=C/C#CC(C)(C)C)Cc1cccc2ccccc12 [Terbinafine] | > 45.8 | > 45.8
CC(C)(C)NCC(O)c1cc(O)cc(O)c1 (stereo not given) [Terbutaline hemisulfate] | > 45.8 | > 45.8
CC(C)N1CCN(c2ccc(OCC3COC(Cn4cncn4)(c4ccc(Cl)cc4Cl)O3)cc2)CC1 (stereo not given) [Terconazole] | > 45.8 | > 45.8
CCN(CC)C(=O)N[C@H]1C[C@@H]2c3cccc4[nH]cc(c34)C[C@H]2N(C)C1 [Terguride] | > 45.8 | > 45.8
C[C@]12CC[C@H]3[C@@H](CCC4=CC(=O)CC[C@@]43C)[C@@H]1CC[C@@H]2OC(=O)CCc1ccccc1 [Testosterone 17-phenylpropionate] | > 45.8 | > 45.8
CCCCCCCCCCC(=O)O[C@H]1CC[C@H]2[C@@H]3CCC4=CC(=O)CC[C@]4(C)[C@H]3CC[C@]12C [Testosterone (undecanoate)] | > 45.8 | > 45.8
CCCCCCCCCC(=O)O[C@H]1CC[C@H]2[C@@H]3CCC4=CC(=O)CC[C@]4(C)[C@H]3CC[C@]12C [Testosterone decanoate] | > 45.8 | > 45.8
CC(C)CCC(=O)O[C@H]1CC[C@H]2[C@@H]3CCC4=CC(=O)CC[C@]4(C)[C@H]3CC[C@]12C [Testosterone isocaproate] | > 45.8 | > 45.8
CCC(=O)O[C@H]1CC[C@H]2[C@@H]3CCC4=CC(=O)CC[C@]4(C)[C@H]3CC[C@]12C [Testosterone propionate] | > 45.8 | > 45.8
COc1cc2c(cc1OC)C1CC(=O)C(CC(C)C)CN1CC2 (stereo not given) [Tetrabenazine Mesylate] | > 45.8 | > 45.8
COc1cc2c(cc1OC)C1CC(=O)C(CC(C)C)CN1CC2 (stereo not given) [Tetrabenazine] | > 45.8 | > 45.8

Next, values leading:

IC50 cell viability (ICRF193 0 nM) [µM] | IC50 cell viability (ICRF193 200 nM) [µM] | SMILES
> 45.8 | > 45.8 | CC(C)(C)c1ccc(C(O)CCCN2CCC(C(O)(c3ccccc3)c3ccccc3)CC2)cc1 (stereo not given) [Terfenadine]
> 45.8 | > 45.8 | NCCCC[C@H](NC(=O)[C@@H]1CCCN1C(=O)[C@@H]1CSSC[C@H](NC(=O)CNC(=O)CNC(=O)CN)C(=O)N[C@@H](Cc2ccc(O)cc2)C(=O)N[C@@H](Cc2ccccc2)C(=O)N[C@@H](CCC(N)=O)C(=O)N[C@@H](CC(N)=O)C(=O)N1)C(=O)NCC(N)=O [Terlipressin]
> 45.8 | > 45.8 | CC(CC(c1ccccc1)c1ccccc1)NC(C)(C)C (stereo not given) [Terodiline hydrochloride]
> 45.8 | > 45.8 | CC1=CCC(O)(C(C)C)CC1 (stereo not given) [Terpineol]
> 45.8 | > 45.8 | CCO[C@@H](Cc1ccc(OCCc2ccc(OS(C)(=O)=O)cc2)cc1)C(=O)O [Tesaglitazar]
> 45.8 | > 45.8 | CCCCNc1ccc(C(=O)OCCN(C)C)cc1 [Tetracaine hydrochloride]
> 45.8 | > 45.8 | CN(C)[C@@H]1C(O)=C(C(N)=O)C(=O)[C@@]2(O)C(O)=C3C(=O)c4c(O)cccc4[C@@](C)(O)[C@H]3C[C@@H]12 [Tetracycline hydrochloride]
> 45.8 | > 45.8 | NCCNCCNCCNCCN [Tetraethylenepentamine]
> 45.8 | > 45.8 | c1ccc2c(c1)CCCC2C1=NCCN1 (stereo not given) [Tetrahydrozoline HCl]
> 45.8 | > 45.8 | O=C1CCC(N2C(=O)c3ccccc3C2=O)C(=O)N1 (stereo not given) [Thalidomide]
> 45.8 | > 45.8 | CC1(C)[C@@H]2CC[C@@]1(C)[C@H](OC(=O)CSC#N)C2 [Thanite]
> 45.8 | > 45.8 | CN(C)CCN(Cc1ccsc1)c1ccccn1 [Thenyldiamine]
> 45.8 | > 45.8 | Cn1cnc2c1c(=O)[nH]c(=O)n2C [Theobromine]
> 45.8 | > 45.8 | Cn1c(=O)c2[nH]cnc2n(C)c1=O [Theophyllamine]
> 45.8 | > 45.8 | c1ccc2[nH]c(-c3cscn3)nc2c1 [Thiabendazole]
> 45.8 | > 45.8 | C/C(=C(\CCO)SS/C(CCO)=C(/C)N(C=O)Cc1cnc(C)nc1N)N(C=O)Cc1cnc(C)nc1N [Thiamine disulfide]
> 45.8 | > 45.8 | Cc1ncc(C[n+]2csc(CCO)c2C)c(N)n1 [Thiamine hydrochloride]
